Here are results for 4 compounds from PMC4367813 (Current medicinal chemistry, 2012).

In general, IC50 refers to the concentration needed to halve the response being measured. One may read the Ki as the dissociation constant of the complex between target and ligand, obtained from inhibition or displacement.

For data set [1], the system named is PRCP. The conditions noted are these: read-out: PRCP IC50, cited from earlier work.
Data set [2] concerns the target T1, carboxypeptidase A (CPA) (Bos taurus, UniProt P00730).
T1 sequence (P00730 111-419): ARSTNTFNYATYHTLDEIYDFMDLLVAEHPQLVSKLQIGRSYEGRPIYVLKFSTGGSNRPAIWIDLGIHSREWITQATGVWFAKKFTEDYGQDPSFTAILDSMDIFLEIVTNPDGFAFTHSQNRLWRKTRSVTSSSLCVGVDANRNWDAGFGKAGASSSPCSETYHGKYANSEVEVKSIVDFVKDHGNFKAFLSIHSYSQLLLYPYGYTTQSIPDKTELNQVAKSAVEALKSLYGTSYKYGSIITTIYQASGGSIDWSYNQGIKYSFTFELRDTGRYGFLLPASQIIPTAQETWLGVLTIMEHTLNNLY
Nature of the data set: Specificity: carboxypeptidase A inhibition. Format: biochemical.

For data set [3], the target named is T2, carboxypeptidase M (CPM) (Homo sapiens, UniProt P14384).
T2 sequence (P14384 18-443): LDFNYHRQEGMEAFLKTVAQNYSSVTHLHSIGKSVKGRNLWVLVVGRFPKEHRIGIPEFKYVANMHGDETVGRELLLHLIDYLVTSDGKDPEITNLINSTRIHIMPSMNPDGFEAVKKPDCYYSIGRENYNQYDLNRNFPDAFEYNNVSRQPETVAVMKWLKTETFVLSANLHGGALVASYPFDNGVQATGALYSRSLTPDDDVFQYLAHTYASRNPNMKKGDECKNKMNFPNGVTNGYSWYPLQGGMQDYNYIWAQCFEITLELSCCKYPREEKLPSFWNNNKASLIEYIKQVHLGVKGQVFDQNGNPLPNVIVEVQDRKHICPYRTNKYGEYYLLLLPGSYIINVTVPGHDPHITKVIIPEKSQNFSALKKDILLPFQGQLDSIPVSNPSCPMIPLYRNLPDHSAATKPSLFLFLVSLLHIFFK
Nature of the data set: Specificity: carboxypeptidase M inhibition. Format: biochemical. The conditions noted are these: Table 5, NE = no effect.

For data set [4], the target named is T3, carboxypeptidase B (CPB) (Sus scrofa, UniProt P09955).
T3 sequence (P09955 111-416): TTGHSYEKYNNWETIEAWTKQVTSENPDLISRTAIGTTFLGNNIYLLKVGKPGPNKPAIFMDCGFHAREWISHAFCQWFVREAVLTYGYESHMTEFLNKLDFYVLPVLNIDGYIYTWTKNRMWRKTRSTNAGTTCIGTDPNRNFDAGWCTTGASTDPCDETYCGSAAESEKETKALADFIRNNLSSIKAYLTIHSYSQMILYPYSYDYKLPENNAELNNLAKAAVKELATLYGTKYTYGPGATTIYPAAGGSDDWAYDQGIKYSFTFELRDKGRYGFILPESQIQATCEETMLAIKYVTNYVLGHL
In words: Specificity: carboxypeptidase B inhibition. Format: biochemical. The following applies: Table 5, NE = no effect.

In data set [5] the target is T4, carboxypeptidase N (hCPN, partially purified from plasma) (Homo sapiens, UniProt P15169).
T4 sequence (P15169 21-458): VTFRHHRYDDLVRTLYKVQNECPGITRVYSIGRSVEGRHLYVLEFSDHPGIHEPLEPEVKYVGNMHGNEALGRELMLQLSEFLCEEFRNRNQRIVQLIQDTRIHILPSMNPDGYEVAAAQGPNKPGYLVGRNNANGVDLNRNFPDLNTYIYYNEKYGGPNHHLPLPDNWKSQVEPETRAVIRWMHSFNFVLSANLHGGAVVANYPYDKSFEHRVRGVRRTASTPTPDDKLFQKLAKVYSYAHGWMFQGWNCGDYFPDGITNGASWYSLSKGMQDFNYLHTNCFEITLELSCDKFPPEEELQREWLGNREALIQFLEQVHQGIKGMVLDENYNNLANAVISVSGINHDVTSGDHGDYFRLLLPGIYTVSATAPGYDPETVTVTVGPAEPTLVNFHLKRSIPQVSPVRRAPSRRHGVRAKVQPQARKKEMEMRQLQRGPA
T4 sequence (P22792 22-545 partner): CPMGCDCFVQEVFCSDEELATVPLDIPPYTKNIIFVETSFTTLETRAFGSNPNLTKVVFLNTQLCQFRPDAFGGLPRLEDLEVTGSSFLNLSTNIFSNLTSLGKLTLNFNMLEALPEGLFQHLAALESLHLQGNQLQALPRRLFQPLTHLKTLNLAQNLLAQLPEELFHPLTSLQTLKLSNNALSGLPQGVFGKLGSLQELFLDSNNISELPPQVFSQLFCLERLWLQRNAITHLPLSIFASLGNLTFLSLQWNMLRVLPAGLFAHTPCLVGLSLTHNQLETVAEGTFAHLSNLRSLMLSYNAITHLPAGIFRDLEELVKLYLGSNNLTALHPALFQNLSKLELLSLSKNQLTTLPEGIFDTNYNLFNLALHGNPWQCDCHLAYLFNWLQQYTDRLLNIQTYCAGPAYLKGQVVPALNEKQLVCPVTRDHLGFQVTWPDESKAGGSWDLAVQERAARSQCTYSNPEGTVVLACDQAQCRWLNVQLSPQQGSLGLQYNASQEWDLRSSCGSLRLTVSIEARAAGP
In words: Specificity: carboxypeptidase N inhibition. Format: biochemical. The following applies: Table 5, NE = no effect.

Data set [6] relates to NO formation on HPAEC. Nature of the data set: PRCP-induced nitric oxide formation on HPAEC. The data set is classed as cell-based, human. The following applies: HPAEC with HK/PK complexes, 100 µM.
Data set [7] relates to PGI2 (6-keto prostaglandin F1α) release from HPAEC. Nature of the data set: PRCP-induced 6-keto prostaglandin F1α release from HPAEC. The data set is classed as cell-based, human. The following applies: HPAEC with HK/PK complexes, 100 µM.
In data set [8] the test system is food intake in mice. The following applies: fasted mice.
A short description of data set [9]: Metabolic panel.
Data set [10] deals with T5, recombinant PRCP (rPRCP) (Homo sapiens, UniProt P42785).
T5 sequence (P42785 46-496): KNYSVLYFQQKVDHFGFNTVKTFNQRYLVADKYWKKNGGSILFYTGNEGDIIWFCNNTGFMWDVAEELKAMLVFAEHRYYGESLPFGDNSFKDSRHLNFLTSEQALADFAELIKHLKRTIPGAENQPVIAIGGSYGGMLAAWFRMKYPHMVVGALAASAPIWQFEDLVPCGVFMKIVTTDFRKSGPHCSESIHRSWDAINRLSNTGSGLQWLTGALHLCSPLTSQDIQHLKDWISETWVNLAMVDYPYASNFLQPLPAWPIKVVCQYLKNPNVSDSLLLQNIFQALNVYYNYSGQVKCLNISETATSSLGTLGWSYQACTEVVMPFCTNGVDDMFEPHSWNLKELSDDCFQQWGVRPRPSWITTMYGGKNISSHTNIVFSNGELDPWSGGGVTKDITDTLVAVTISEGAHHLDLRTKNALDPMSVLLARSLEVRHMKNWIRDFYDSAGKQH
In words: rPRCP activity, cleavage of chromogenic substrate APpNA. The data set is classed as biochemical. The following applies: 1 mM APpNA, 60 min; NE = no effect.

Data set [11] has as its target PRCP-dependent prekallikrein (PK) activation on HPAEC. In words: PRCP-dependent PK activation on HPAEC. Format: cell-based, human. The following applies: 20 nM HK, 20 nM PK; NE = no effect.
The mark [12] stands for this setting: mice, Compound 3 (400 µM), within 8 hours of administration.

Each structure is given as a SMILES string. Where two headings read alike, the source gives them in different places. Residues, ends and D or L forms follow the SMILES beside them. *: point of attachment. Cbz = O=C(OCc1ccccc1)*

`O=C[C@@H]1CCCN1C(=O)[C@@H]1CCCN1C(=O)OCc1ccccc1` (Cbz-Pro-Pro-aldehyde): the IC50 in [1] is over 1000 µM.
For the compound `c1cnc2c(c1)ccc1cccnc12` [1,10-Phenanthroline, 1,10-phenanthroline, reference compound], the inhibition constant (Ki) is 486 µM in data set [2] and 394 µM in [3] (Ki CPM).
On to `CCCCCCCCCCCCNC(=O)[C@@H]1CCCN1C(=O)[C@@H]1CCCN1` [Compound 3, (S)-N-dodecyl-1-((S)-pyrrolidine-2-carbonyl) pyrrolidine-2-carboxamide], for which the “Ki CPA” value in data set [2] (Table 5, NE = no effect) is reported as “not inhibited”. In addition, the Ki in data set [2] (read-out: Ki CPA, Table 5, NE = no effect) is over 1000 µM. Further, the “Ki CPB” value in [4] is “not inhibited”. In addition, in [4] (read-out: Ki CPB), the Ki is over 1000 µM. The “Ki CPN” value in data set [5] is on record as “did not inhibit”. For the same compound, in data set [5] (read-out: Ki CPN), the inhibitory constant (Ki) was over 1000 µM. In addition, the “Ki CPM” value in data set [3] is listed as “did not inhibit”. Also, the Ki in data set [3] (read-out: Ki CPM) is over 1000 µM. In [6], the “reduction of NO production” value is listed as 80%. The “reduction of PGI2 production” value in [7] amounted to 80%. Further, the food intake result in [8] (1 mg/kg ip, 1-24 h) was “lower food intake, although the reduction was not significant at 2, 4, 8, or 24 h”. Besides, in data set [8] (10 mg/kg ip, all time intervals 1-24 h, P < 0.05 vs saline), the food intake result is on record as “Significant declines in food intake”. Moreover, the “time at which attenuation of food intake started” value in data set [8] (ip) is listed as at most 1 h. In data set [9] (setting [12]), this compound came in with an ALB of 3.9, an ALP of 93, an ALT of 33 and an AMY of 1041. For the same compound, in [9] (setting [12]), the BUN is reported as 19, the CRE is given as 0.3, the “Ca^2+” value is recorded as 9.9 and the GLOB is listed as 1.5. Also, in data set [9] (setting [12]), the GLU is reported as 165, the “K+” value was 5.4, the “Na+” value is listed as 151 and the PHOS came out at 8.0. Further, in [9] (setting [12]), the TBIL is recorded as 0.4 and the TP was 5.3. Besides, the “changes in electrolyte levels, or markers of kidney and liver function” value in data set [9] (mice, within 8 hours of administration) was “did not cause significant changes”. The “decrease in blood glucose levels” value in data set [9] (treated mice, n=3, P = 0.26) came out at 15%.
For `O=C[C@@H]1CCCN1C(=O)[C@@H]1CCCN1C(=O)OCc1ccccc1` [z-Pro-Prolinal, 1-[1-(benzyloxycarbonyl)-L-prolyl] prolinal] (Cbz-Pro-Pro-aldehyde), the “rPRCP Ki” value in data set [10] is reported as “little effect”. Further, the “PRCP-Dependent PK Activation on HPAEC Ki” value in data set [11] is given as “little effect”. Besides, the IC50 in [1] (listed as Z-Pro-Pro-OH) is over 2000 µM.
